Data as given in patent US10935546B2, “Fluorescent AMP-kinase biosensors” (Universite Grenoble Alpes, priority 2015, dated 2021).

How the values were obtained:
[1] = target: T1, AMPfret 2.1 (UniProt O43741+P80385+Q09137); assay: FRET assay with purified AMPfret 2.1 sensor (fluorimeter); format: binding, rat α2 and γ1, human β2; conditions: 50 μM A-769662 or 500 μM Metformin, compared with 20 μM AMP (FIG. 6)
T1 construct: decaHis tag with TEV site (N); made in house; host or cells: E. coli BL21 (DE3) Star
T1 sequence (Q09137 1-550): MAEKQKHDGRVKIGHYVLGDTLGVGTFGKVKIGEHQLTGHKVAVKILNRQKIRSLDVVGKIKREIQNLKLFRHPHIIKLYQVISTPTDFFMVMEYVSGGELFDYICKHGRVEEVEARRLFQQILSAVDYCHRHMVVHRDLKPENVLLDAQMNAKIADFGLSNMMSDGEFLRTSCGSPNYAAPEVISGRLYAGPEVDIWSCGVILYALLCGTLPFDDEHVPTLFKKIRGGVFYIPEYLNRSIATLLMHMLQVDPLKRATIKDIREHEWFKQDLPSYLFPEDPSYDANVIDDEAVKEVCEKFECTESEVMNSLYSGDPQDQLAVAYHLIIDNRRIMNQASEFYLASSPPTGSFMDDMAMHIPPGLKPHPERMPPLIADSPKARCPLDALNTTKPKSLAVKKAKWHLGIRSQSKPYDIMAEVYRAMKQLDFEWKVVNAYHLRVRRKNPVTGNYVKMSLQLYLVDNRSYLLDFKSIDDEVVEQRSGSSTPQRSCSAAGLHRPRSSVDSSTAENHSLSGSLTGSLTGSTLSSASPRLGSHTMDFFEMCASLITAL
T1 sequence (O43741 1-269): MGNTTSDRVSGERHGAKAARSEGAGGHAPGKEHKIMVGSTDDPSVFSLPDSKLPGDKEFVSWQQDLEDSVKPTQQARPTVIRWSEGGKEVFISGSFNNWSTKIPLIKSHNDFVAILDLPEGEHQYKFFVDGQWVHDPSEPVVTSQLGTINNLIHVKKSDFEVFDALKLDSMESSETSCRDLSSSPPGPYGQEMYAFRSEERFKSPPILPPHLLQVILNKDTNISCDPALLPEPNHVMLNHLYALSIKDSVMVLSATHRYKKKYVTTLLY
T1 sequence (P80385 whole entry): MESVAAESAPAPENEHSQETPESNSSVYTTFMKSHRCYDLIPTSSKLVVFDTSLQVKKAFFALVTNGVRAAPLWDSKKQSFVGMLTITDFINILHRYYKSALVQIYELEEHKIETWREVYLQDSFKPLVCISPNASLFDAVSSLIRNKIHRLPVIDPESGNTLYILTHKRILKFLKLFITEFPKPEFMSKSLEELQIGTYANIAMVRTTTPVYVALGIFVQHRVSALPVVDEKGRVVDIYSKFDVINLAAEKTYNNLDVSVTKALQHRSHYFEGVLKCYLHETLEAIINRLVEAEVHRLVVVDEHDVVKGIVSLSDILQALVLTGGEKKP
Procedure: The FRET ratio was calculated from fluorescence emission spectra excited at 430 nm. Data points correspond to mean±SEM (n>3).
Structure and names of the molecules are given below the bars.
(§1) FRET assay: FRET signal variation in presence of different compounds (nucleotides, chemicals, ions) was measured using a fluorimeter (Photon Technology International). AMPfret constructs (20 pmol) were incubated in a quartz cuvette in a final volume of 150 μL (spectro buffer: 50 mM Tris pH8, 200 mM NaCl, 5 mM MgCl2, 2 mM β-mercaptoethanol). Effects of nucleotides and others compounds (previously prepared in the spectro buffer) on the FRET ratio given by AMPfret sensor was determined by comparing FRET ratio (peak value at 527 nm/peak value at 476 nm) in presence or absence of the compounds. Excitation wavelength was set to 430 nm, and emission spectra were recorded from 450 to 600 nm with an integration time of 0.2 s. Mg^2+ effect on FRET was investigated in spectro buffer without Mg^2+.

[2] = system: AMPfret 2.1 in 3T3-L1 or HeLa cells; conditions: 1 mM AICAR
Procedure: HeLa cells transfected with AMPFret 2.1 were exposed for 60 min to 1 mM AICAR. […] (b) Time course of the FRET signal. […] (c) AMPK activation at t=0 min and t=60 min. Phosphorylation of the AMPK substrate ACC as determined by immunoblotting (lower panel) and quantification of the resulting P-ACC/total ACC ratio (upper panel). P-ACC/total ACC ratios at t=0 and t=60 min are respectively represented as a white dotted bar and black dotted bar. Data correspond to mean±SEM (n=3).
For cellular ex vivo experiments, subunits of the optimized construct AMPfret 2.1 were cloned in the vectors (pACEMam2, pMDS and pMDK) of the MultiMam expression system. Created plasmids were fused via their Lox-P site to yield to a single mammalian expression vector coding for the sensor AMPFret 2.1 according to well-known techniques to the skilled man in the art.
3T3-L1 and HeLa cells were cultivated in glucose containing DMEM (4.5 g/L) supplemented with SVF, glutamine, penicillin and streptomycin. Once cells reached around 80% confluence, medium was replaced by OptiMEM (Lifetechnologies) and AMPfret 2.1 coding plasmid was transfected using Lipofectamine2000 (Lifetechnologies). After 5 h, OptiMEM was exchanged by complete DMEM and cells grew for >36 h until their observations under the confocal microscope.
LabTek plates were placed in an incubation chamber in which the temperature and O2 concentration were maintained at 37° C. and 21%, respectively. Without moving the Labtek, 200 μL medium was replaced by the same volume of complete medium containing 2 mM AICAR (1 mM final). Excitation wavelength was set to 458 nm and emission spectra showing FRET signal were monitored through A scans from 463 nm to 600 nm every 15 min. ROI (region of interest) were drawn in order to cover entire cells. FRET ratio variations were calculated from those measured emission spectra.
AMPfret 2.1 was excited using a 458 nm laser and emission spectra showing FRET signal were monitored through A scans from 463 nm to 600 nm every 15 min.

[3] = FRET signal variation of AMPfret constructs upon AMP/ADP binding; conditions: 3 mM ATP vs 20 μM AMP (FIG. 2)
Excerpt: Top: Schema showing structural organization of the sensors. CFP and YFP are respectively represented as hatched- and dotted-circles. (a) Fluorescence emission spectra of AMPfret constructs excited at 430 nm. […] Data correspond to mean±SEM (AMPfret A: n=7; AMPfret C: n=10).
Second generation of AMPfret constructs 1.1 and 2.1. based on constructs AMPfret C and A, respectively. Top: Schema showing structural organization of the sensors. Both optimized constructs contain mseCFPΔ11/cpVenus as GFP-derived fluorescent couple instead of CFP/YFP. mseCFPΔ11 and cpVenus are respectively represented as hatched- and checkered circles. […] (a) Fluorescence emission spectra of AMPfret constructs excited at 430 nm. […] Data correspond to mean±SEM (AMPfret 1.0: n=10; AMPfret 1.1: n=7); *=p<0.001 (significance assessed by a Student-Newman-Keuls test).
as §1, with “AMPfret constructs (20 pmol) were incubated in a quartz cuvette in a final volume of 150 μL (spectro buffer: 50 mM Tris pH8, 200 mM NaCl, 5 mM MgCl2, 2 mM β-mercaptoethanol).” left out, “Mg^2+ effect on FRET was investigated in spectro buffer without Mg^2+.” left out

Question: For `N#Cc1c(O)c2c(-c3ccc(-c4ccccc4O)cc3)csc2[nH]c1=O` [A-769662], which “FRET signal induced in AMPfret in vitro” value [1] is on record?
Answer: induces a FRET signal comparable to AMP

Question: For `NC(=O)c1ncn([C@@H]2O[C@H](CO)[C@@H](O)[C@H]2O)c1N` [AICAR, 5′-Aminoimidazole-4-carboxamide ribonucleoside], which “time to maximal effect on FRET signal” value [2] is on record?
Answer: about 30 minutes

Question: And the “AMPfret 2.1 FRET signal upon AICAR addition” value ([2]; 60 min, read every 15 min, HeLa and 3T3-L1 cells)?
Answer: increased with time

Question: And the “FRET response after 15 min of treatment” value ([2]; 15 min)?
Answer: More than half-maximal response

Question: And the “cpVenus peak (527 nm) in fluorescence emission spectra over time” value ([2]; HeLa cells transfected with AMPFret 2.1, 0, 15, 30 min)?
Answer: increase of cpVenus peak

Question: With `CN(C)C(=N)N=C(N)N` [Metformin] as the molecule, how does the “FRET signal induced in AMPfret in vitro” value [1] read?
Answer: did not induce any FRET variation

Question: With “AMPfret A: AMPK heterotrimer: rat alpha2-CFP (SEQ ID NO:5), human beta2-YFP (SEQ ID NO:11), rat gamma1 (SEQ ID NO:15)” as the molecule, how does the “difference in FRET signal depending on the presence of AMP or ADP” value [3] read?
Answer: ~10%

Question: With “AMPfret C: AMPK heterotrimer: rat alpha2-CFP (SEQ ID NO:5), human beta2 (SEQ ID NO:9), rat gamma1-YFP (SEQ ID NO:21)” as the molecule, how does the “difference in FRET signal depending on the presence of AMP or ADP” value [3] read?
Answer: ~10%
